Experimental data as given in PMC11955521, “A GTP-driven central carbon metabolism in the cellulolytic bacterium Ruminiclostridium cellulolyticum” (Communications Biology, 2025).

Target: T1, Pyruvate kinase (PK) (Ruminiclostridium cellulolyticum, UniProt B8I6Q5)
T1 construct: gene Ccel_2569; full-length, C-terminal His tag (pET28a), E. coli BL21(DE3), Ni-NTA and anion exchange
T1 sequence (B8I6Q5 1-580): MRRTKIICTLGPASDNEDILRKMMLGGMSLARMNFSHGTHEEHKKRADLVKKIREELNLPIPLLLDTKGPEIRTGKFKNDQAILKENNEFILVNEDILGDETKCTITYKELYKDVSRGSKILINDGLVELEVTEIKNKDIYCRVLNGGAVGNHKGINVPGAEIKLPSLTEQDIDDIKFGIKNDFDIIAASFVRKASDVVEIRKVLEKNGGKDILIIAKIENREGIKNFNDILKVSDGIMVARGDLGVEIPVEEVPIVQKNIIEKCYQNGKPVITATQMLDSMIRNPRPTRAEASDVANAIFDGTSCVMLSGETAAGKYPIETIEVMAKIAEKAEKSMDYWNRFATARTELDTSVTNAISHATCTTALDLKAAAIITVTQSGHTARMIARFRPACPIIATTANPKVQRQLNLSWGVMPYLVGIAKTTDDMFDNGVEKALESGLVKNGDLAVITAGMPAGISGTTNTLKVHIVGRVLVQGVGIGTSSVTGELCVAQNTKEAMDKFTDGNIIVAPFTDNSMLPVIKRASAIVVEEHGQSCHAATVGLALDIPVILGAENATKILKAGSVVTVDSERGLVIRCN
Test: activation of PK, HPLC-RI of pyruvate
Assay type: biochemical
Conditions: allosteric activator only with GDP as co-substrate; FBP 0.5, 3, 10 mM; 20 mM MgCl2, 30 mM KCl, pH 7.0, 37 °C

In the case of `O=P(O)(O)OC[C@H]1OC(O)(COP(=O)(O)O)[C@@H](O)[C@@H]1O` (stereo partly shown) [FBP], the “activation of PK, HPLC-RI of pyruvate” value is reported as “FBP was found to act as a potent allosteric activator only when GDP is the co-substrate”.
